The record followed here is patent publication US8492559B2, “Substituted indole compounds” (Gruenenthal GmbH, priority 2009, dated 2013).

The target of the experiment is T1, B1R receptor of the rat (rB1R) (Rattus norvegicus, UniProt P97583).
T1 construct: expressed in transfected cells; host or cells: CHO K1 cells
T1 sequence (P97583 1-337): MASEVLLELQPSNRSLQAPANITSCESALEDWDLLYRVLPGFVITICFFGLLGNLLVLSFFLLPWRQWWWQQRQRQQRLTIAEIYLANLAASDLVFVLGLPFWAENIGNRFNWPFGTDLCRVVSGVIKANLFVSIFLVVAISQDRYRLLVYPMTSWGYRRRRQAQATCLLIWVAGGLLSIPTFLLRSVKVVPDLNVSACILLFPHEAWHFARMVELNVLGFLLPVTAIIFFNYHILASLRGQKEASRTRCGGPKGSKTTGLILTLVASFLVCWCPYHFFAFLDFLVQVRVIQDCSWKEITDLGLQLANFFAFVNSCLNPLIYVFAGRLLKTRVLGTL
Kind of experiment: Functional investigation on the bradykinin 1 receptor (B1R), FLIPR Ca2+ assay, rB1R cells. In kind it is cell-based. The following applies: CHO K1 cells with rat B1R, agonist Des-Arg9 bradykinin, % of maximum achievable inhibition; for inhibition at 10 µM: CHO-K1, 10 μM test substance, read-out: B1R antagonism, rat [10 μM] % inhibition. The procedure, abridged: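 Ca2+ influx is measured as peak Fluo-4 fluorescence in a FLIPR protocol with two substance additions, following Lys-Des-[MUT] bradykinin (0.5 nM) or Des-[MUT] bradykinin (100 nM) challenge. Varying antagonist concentrations give % inhibition relative to maximum achievable and an IC50. Determinations in duplicate or triplicate, repeated independently (N>=2).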

SMILES strings stand for the structures.

Regarding `COc1cc(C)c(S(=O)(=O)Nc2cccc3ccn(CC(=O)N4CCC5(CC4)CCN(c4ccncc4)CC5)c23)c(C)c1` [Compound G-05, 4-Methoxy-2,6-dimethyl-N-[1-[2-oxo-2-(9-pyridin-4-yl-3,9-diazaspiro[5.5]undecan-3-yl)-ethyl]-1H-indol-7-yl]-benzenesulfonic acid amide], where the note is “10 μM test substance, 10 µM”, the “B1R antagonism, rat [10 μM] % inhibition” value came out at 96%. For the molecule `COc1cc(C)c(S(=O)(=O)Nc2cccc3ccn(CC(=O)N4CCC(N5CCc6cc(CN7CCCCC7)ccc6C5)C4)c23)c(C)c1` (stereo not drawn) [Compound G-16, 4-Methoxy-2,6-dimethyl-N-(1-(2-oxo-2-(3-(6-(piperidin-1-ylmethyl)-3,4-dihydroisoquinolin-2(1H)-yl)pyrrolidin-1-yl)ethyl)-1H-indol-7-yl)benzenesulfonic acid amide], the inhibition at 10 µM came out at 96%. Regarding `COc1cc(C)c(S(=O)(=O)Nc2cccc3ccn(CCC(=O)NCCC4CCN(c5ccncc5)CC4)c23)c(C)c1` [G_CC-47, 3-[7-[[(4-Methoxy-2,6-dimethyl-phenyl)sulfonyl]amino]-1H-indol-1-yl]-N-[2-(1-pyridin-4-yl-piperidin-4-yl)-ethyl]-propionamide], the inhibition at 10 µM worked out at 102%. With `O=C(Cn1ccc2ccc(N3CCn4c(c(Cl)c5ccccc54)C3=O)cc21)N1CCC2(CC1)CCN(c1ccncc1)CC2` [Compound G-31, 10-Chloro-2-[1-[2-oxo-2-(9-pyridin-4-yl-3,9-diazaspiro[5.5]undecan-3-yl)-ethyl]-1H-indol-6-yl]-3,4-dihydro-2H-pyrazino[1,2-a]indol-1-one], the inhibition at 10 µM was determined as 54%. Turning to `O=C(CCn1ccc2ccc(N3Cc4cccc(Cl)c4C3=O)cc21)N1CCC2(CC1)CCN(c1ccncc1)CC2` [Compound G-07, 7-Chloro-2-[1-[3-oxo-3-(9-pyridin-4-yl-3,9-diazaspiro[5.5]undecan-3-yl)-propyl]-1H-indol-6-yl]-2,3-dihydro-isoindol-1-one], the inhibition at 10 µM is 100%. For the molecule `O=C(Cn1ccc2cccc(N3Cc4cccc(Cl)c4C3=O)c21)N1CCC2(CC1)CCN(c1ccncc1)CC2` [Compound G-11, 7-Chloro-2-(1-(2-oxo-2-(9-(pyridin-4-yl)-3,9-diazaspiro[5.5]undecan-3-yl)ethyl)-1H-indol-7-yl)isoindolin-1-one], the inhibition at 10 µM was -21%.
